According to ChEMBL document CHEMBL3045684, “Compatibility of traditional and novel acaricides with bumblebees (Bombus terrestris): a first laboratory assessment of toxicity and sublethal effects” (Pest Manag Sci, 2010):
Calls of active or inactive are those of the source. The calls are words filed in the database; no cut-off is given here.

Key:
Bombus terrestris [1] = assay: Contact toxicity against worker Bombus terrestris (bumblebee) assessed as reduction in reproduction at 150 mg a.i./l applied on the dorsal thorax for 11 weeks measured once a week for 11 weeks relative to control; type: functional, organism-based
Bombus terrestris [2] = assay: Toxicity against worker Bombus terrestris (bumblebee) assessed as mortality at 150 mg a.i./l, po administered through pollen for 11 weeks measured everyday for 3 days followed by once a week for 11 weeks; type: functional, organism-based
Bombus terrestris [3] = assay: Toxicity against worker Bombus terrestris (bumblebee) assessed as reduction in reproduction at 150 mg a.i./l, po administered through sugar water for 11 weeks measured once a week for 11 weeks relative to control; type: functional, organism-based
Bombus terrestris [4] = assay: Contact toxicity against worker Bombus terrestris (bumblebee) assessed as mortality at 150 mg a.i./l applied on the dorsal thorax for 11 weeks measured everyday for 3 days followed by once a week for 11 weeks; type: functional
Bombus terrestris [5] = assay: Toxicity against worker Bombus terrestris (bumblebee) assessed as reduction in reproduction at 150 mg a.i./l, po administered through pollen for 11 weeks measured once a week for 11 weeks; type: functional; parameters: scale not given: the % may be the effect or the level left
Bombus terrestris [6] = assay: Toxicity against worker Bombus terrestris (bumblebee) assessed as mortality at 150 mg a.i./l, po administered through sugar water for 11 weeks measured everyday for 3 days followed by once a week for 11 weeks; type: functional
Bombus terrestris [7] = assay: Toxicity against worker Bombus terrestris (bumblebee) assessed as reduction in reproduction at 96 mg a.i./l, po administered through sugar water for 11 weeks measured once a week for 11 weeks relative to control; type: functional, organism-based
Bombus terrestris [8] = assay: Contact toxicity against worker Bombus terrestris (bumblebee) assessed as reduction in reproduction at 96 mg a.i./l applied on the dorsal thorax for 11 weeks measured once a week for 11 weeks relative to control; type: functional, organism-based
Bombus terrestris [9] = assay: Toxicity against worker Bombus terrestris (bumblebee) assessed as reduction in reproduction at 30 mg a.i./l, po administered through sugar water for 11 weeks measured once a week for 11 weeks relative to control; type: functional, organism-based
Bombus terrestris [10] = assay: Toxicity against worker Bombus terrestris (bumblebee) assessed as mortality at 96 mg a.i./l, po administered through pollen for 11 weeks measured everyday for 3 days followed by once a week for 11 weeks; type: functional, organism-based
Bombus terrestris [11] = assay: Toxicity against worker Bombus terrestris (bumblebee) assessed as mortality at 96 mg a.i./l, po administered through sugar water for 11 weeks measured everyday for 3 days followed by once a week for 11 weeks; type: functional
Bombus terrestris [12] = assay: Toxicity against po dosed worker Bombus terrestris (bumblebee) administered through sugar water for 11 weeks measured everyday for 3 days followed by once a week for 11 weeks; type: functional
Apis mellifera [13] = assay: Contact toxicity against Apis mellifera (honey bee) assessed per bee after 48 hr; type: functional
Apis mellifera [14] = assay: Contact toxicity against Apis mellifera (honey bee) assessed per bee; type: functional
Bombus terrestris [15] = assay: Toxicity against worker Bombus terrestris (bumblebee) assessed as mortality at 96 mg a.i./l, po administered through sugar water measured up to 1 week; type: functional, organism-based
Bombus terrestris [16] = assay: Contact toxicity against worker Bombus terrestris (bumblebee) assessed as mortality at 96 mg a.i./l applied on the dorsal thorax for 11 weeks measured everyday for 3 days followed by once a week for 11 weeks; type: functional
Bombus terrestris [17] = assay: Contact toxicity against Bombus terrestris (bumblebee) assessed per bee; type: functional
Bombus terrestris [18] = assay: Toxicity against worker Bombus terrestris (bumblebee) assessed as mortality at 500 mg a.i./l, po administered through pollen for 11 weeks measured everyday for 3 days followed by once a week for 11 weeks; type: functional, organism-based
Bombus terrestris [19] = assay: Toxicity against worker Bombus terrestris (bumblebee) assessed as mortality at 500 mg a.i./l, po administered through sugar water for 11 weeks measured everyday for 3 days followed by once a week for 11 weeks; type: functional
Bombus terrestris [20] = assay: Contact toxicity against worker Bombus terrestris (bumblebee) assessed as reduction in reproduction at 500 mg a.i./l applied on the dorsal thorax for 11 weeks measured once a week for 11 weeks relative to control; type: functional, organism-based
Bombus terrestris [21] = assay: Contact toxicity against worker Bombus terrestris (bumblebee) assessed as mortality at 500 mg a.i./l applied on the dorsal thorax for 11 weeks measured everyday for 3 days followed by once a week for 11 weeks; type: functional
Bombus terrestris [22] = assay: Toxicity against worker Bombus terrestris (bumblebee) assessed as reduction in reproduction at 500 mg a.i./l, po administered through pollen for 11 weeks measured once a week for 11 weeks; type: functional; parameters: scale not given: the % may be the effect or the level left
Bombus terrestris [23] = assay: Toxicity against worker Bombus terrestris (bumblebee) assessed as reduction in reproduction at 500 mg a.i./l, po administered through sugar water for 11 weeks measured once a week for 11 weeks relative to control; type: functional, organism-based

Structure (SMILES) | Activity (Bombus terrestris [1]) | Activity (Bombus terrestris [2]) | mortality at 150 µg/mL (Bombus terrestris [4]) [%] | Activity (Bombus terrestris [5]) [%] | mortality at 150 µg/mL (Bombus terrestris [6]) [%] | Activity (Bombus terrestris [18]) | mortality at 500 µg/mL (Bombus terrestris [19]) [%] | Activity (Bombus terrestris [20]) | mortality at 500 µg/mL (Bombus terrestris [21]) [%] | Activity (Bombus terrestris [22]) [%] | Activity (Bombus terrestris [23]) | also measured
CCCCCCCCCCCCC1=C(OC(C)=O)C(=O)c2ccccc2C1=O [ACEQUINOCYL] | Active | inactive | < 25 | 50 | < 25 |  |  |  |  |  |  | Activity (Bombus terrestris [3]): Active
COc1ccc(-c2ccccc2)cc1NNC(=O)OC(C)C [BIFENAZATE] |  |  |  |  |  |  |  |  |  |  |  | Activity (Bombus terrestris [7]): Active; Activity (Bombus terrestris [8]): inactive; Activity (Bombus terrestris [9]): Active; Activity (Bombus terrestris [10]): inactive; mortality at 96 µg/mL (Bombus terrestris [11]): 95%; LC50 (Bombus terrestris [12]): 9.6 mgAi/L; NOAEL (Bombus terrestris [12]): 0.096 mgAi/L; LD50 (Apis mellifera [13]): 8.5 µg; LD50 (Apis mellifera [14]): <1 µg; Activity (Bombus terrestris [15]): Active; mortality at 96 µg/mL (Bombus terrestris [16]): < 25%; LD50 (Bombus terrestris [17]): >100 µg
CC(C)OC(=O)C(O)(c1ccc(Br)cc1)c1ccc(Br)cc1 [BROMOPROPYLATE] |  |  |  |  |  | inactive | < 25 | inactive | < 25 | 50 | Active | 
Clc1ccccc1-c1nnc(-c2ccccc2Cl)nn1 [CLOFENTEZINE] | Active | inactive | < 25 | 50 | 50 |  |  |  |  |  |  | 
ClC1=C(Cl)C(Cl)(C2(Cl)C(Cl)=C(Cl)C(Cl)=C2Cl)C(Cl)=C1Cl [DIENOCHLOR] |  |  |  |  |  | inactive | 85 | inactive | < 25 | 50 | Active | 
